Columns and labels:
[1] = test system: Alisma plantago-aquatica; test: Pot study, spray of pure thaxtomin A solutions, % control; format: in vivo, common waterplantain; Alisma plantago-aquatica; conditions: for % control: Alisma plantago-aquatica
Description: (§1) A pot study was conducted to test the phytotoxicity of thaxtomin A on broadleaved, sedge and grass weeds. Seeds of two most common broadleaf (redstem; Ammannia spp. and common waterplantain; Alisma plantago-aquatica), sedge (smallflower umbrella sedge; Cyperus diiformis) and grass (sprangletop: Leptochloa uninervia) weeds each were planted in a plastic pots filled with heavy clay soil. The less than 1-inch tall plants grown under growth lights (12-h light/12-h dark) at 28° C. were sprayed with pure thaxtomin A solutions containing 0.05, 0.1, 0.2, and 0.4 mg thaxtomin A per mL of solvent (4% ethanol and 0.2% non-ionic surfactant). A solution of 4% ethanol+0.2% non-ionic surfactant without thaxtomin A was used as a control treatment. Same treatments were applied to three-inch tall rice plants grown submerged under growth lights at 28° C. […] All treatments were applied in three replicates. Treated plants were kept at 28° C. under growth lights and observed at three time points—5, 12 and 21 days after treatment—for visual symptoms of phytotoxicity and % control.

[2] = test system: EO2; test: Greenhouse pot study, weed control; format: in vivo, Echinochloa spp.
From the text: (§2) Moderate suppression (60%) was noted on Echinochloa colonum at 500 g a.i. per hectare.

[3] = test system: WCN; test: Greenhouse pot study, weed control; format: in vivo, Eleocharis dulcis
From the text: (§3) The activity on susceptible and resistant biotypes of Scirpus mucronatus was somewhat weaker (70 to 75%) than that observed for other sedge weeds in this study.

[4] = test system: rice (S102, M104, M206); test: Pot study, phytotoxicity on rice plants; format: in vivo; conditions: three rice cultivars (S102, M104, M206); 0.05-0.4 mg/mL; each evaluation time point (5, 12, 21 days)
Description: as §1

[5] = test system: barnyardgrass; test: First study, weed control; format: in vivo; conditions: 500-1000 g a.i. per hectare
[6] = test system: Ammania sp; test: Pot study, spray of pure thaxtomin A solutions, % control; format: in vivo, redstem; Ammannia spp.
Description: as §1

[7] = test system: SPZ; test: Greenhouse pot study, weed control; format: in vivo, Sphenoclea zeylanica
[8] = test system: DSA; test: Greenhouse pot study, weed control; format: in vivo, Heteranthem limosa
[9] = test system: direct-seeded rice; test: First study, crop safety; format: in vivo; conditions: rates up to 750 g a.i. per hectare
[10] = test system: AMM; test: Greenhouse pot study, weed control; format: in vivo, Ammania spp.
From the text: as §2

[11] = test system: MON; test: Greenhouse pot study, weed control; format: in vivo, Monorhoria vaginalis
[12] = test system: TPL (transplanted 'M202' Japonica-type rice); test: Greenhouse pot study, effect on crop growth, transplanted rice; format: in vivo; conditions: for effect on crop growth (rice): TPL
[13] = test system: SCM; test: Greenhouse pot study, weed control; format: in vivo, Scirpus mucronatus
From the text: as §3

[14] = test system: DSR (direct-seeded rice); test: Greenhouse pot study, effect on crop growth, direct-seeded rice; format: in vivo
[15] = test system: WPL; test: Greenhouse pot study, weed control; format: in vivo, Alisma-plamago aquatica
From the text: as §2

[16] = test system: Cyperus sp; test: Pot study, spray of pure thaxtomin A solutions, % control; format: in vivo, smallflower umbrella sedge; Cyperus diiformis
Description: as §1

[17] = test system: CPD; test: Greenhouse pot study, weed control; format: in vivo, Cyperus difformis
From the text: as §2

[18] = test system: Echinochloa colonum; test: First study, weed control; format: in vivo; conditions: 500-1000 g a.i. per hectare

## CN1C(=O)[C@](O)(Cc2cccc(O)c2)N(C)C(=O)[C@@H]1Cc1c[nH]c2cccc([N+](=O)[O-])c12 [thaxtomin A]
[1]; 0.2 mg/ml
  control of common water plantain: complete control
[1]; 5 DAYS, 0.05 mg/mL in 4% ethanol
  % control: 8a %
[1]; 5 DAYS, 0.1 mg/mL in 4% ethanol
  % control: 28ab %
[1]; 5 DAYS, 0.2 mg/mL in 4% ethanol
  % control: 40b %
[1]; 5 DAYS, 0.4 mg/mL in 4% ethanol
  % control: 62b %
[1]; 12 DAYS, 0.05 mg/mL in 4% ethanol
  % control: 40b %
[1]; 12 DAYS, 0.1 mg/mL in 4% ethanol
  % control: 43b %
[1]; 12 DAYS, 0.2 mg/mL in 4% ethanol
  % control: 87c %
[1]; 12 DAYS, 0.4 mg/mL in 4% ethanol
  % control: 87c %
[1]; 21 DAYS, 0.05 mg/mL in 4% ethanol
  % control: 83b %
[1]; 21 DAYS, 0.1 mg/mL in 4% ethanol
  % control: 70b %
[1]; 21 DAYS, 0.2 mg/mL in 4% ethanol
  % control: 100c %
[1]; 21 DAYS, 0.4 mg/mL in 4% ethanol
  % control: 98c %
[2]; EO2, 64 g/ha
  % control: 0%
[2]; EO2, 125 g/ha
  % control: 0%
[2]; EO2, 250 g/ha
  % control: 20%
[2]; EO2, 500 g/ha
  % control: 20%
[2]; EO2, 1000 g/ha
  % control: 30%
[3]; 125 g/ha
  % control: 35%
[3]; 250 g/ha
  % control: 85%
[3]; 500 g/ha
  % control: 85%
[3]; 1000 g/ha
  % control: 95%
[4]
  phytotoxicity in rice cultivars: no phytotoxicity
[5]
  activity on barnyardgrass: moderate activity
[6]; Ammania sp, 5 DAYS, 0.05 mg/mL in 4% ethanol
  % control: 0%
[6]; Ammania sp, 5 DAYS, 0.1 mg/mL in 4% ethanol
  % control: 0%
[6]; Ammania sp, 5 DAYS, 0.2 mg/mL in 4% ethanol
  % control: 0%
[6]; Ammania sp, 5 DAYS, 0.4 mg/mL in 4% ethanol
  % control: 0%
[6]; Ammania sp, 12 DAYS, 0.05 mg/mL in 4% ethanol
  % control: 0a %
[6]; Ammania sp, 12 DAYS, 0.1 mg/mL in 4% ethanol
  % control: 0a %
[6]; Ammania sp, 12 DAYS, 0.2 mg/mL in 4% ethanol
  % control: 0a %
[6]; Ammania sp, 12 DAYS, 0.4 mg/mL in 4% ethanol
  % control: 3b %
[6]; Ammania sp, 21 DAYS, 0.05 mg/mL in 4% ethanol
  % control: 63b %
[6]; Ammania sp, 21 DAYS, 0.1 mg/mL in 4% ethanol
  % control: 53b %
[6]; Ammania sp, 21 DAYS, 0.2 mg/mL in 4% ethanol
  % control: 70b %
[6]; Ammania sp, 21 DAYS, 0.4 mg/mL in 4% ethanol
  % control: 75b %
[6]; red stem (Ammania sp.), highest concentration (0.4 mg/mL)
  % control: 75-80%
[7]; 64 g/ha
  % control: 0%
[7]; 125 g/ha
  % control: 90%
[7]; 250 g/ha
  % control: 90%
[7]; 500 g/ha
  % control: 100%
[7]; 1000 g/ha
  % control: 100%
[8]; 64 g/ha
  % control: 0%
[8]; 125 g/ha
  % control: 100%
[8]; 250 g/ha
  % control: 100%
[8]; 500 g/ha
  % control: 100%
[8]; 1000 g/ha
  % control: 100%
[9]
  growth reductions to direct-seeded rice: only slight growth reductions
[10]; 64 g/ha
  % control: 0%
[10]; 125 g/ha
  % control: 30%
[10]; 250 g/ha
  % control: 90%
[10]; 500 g/ha
  % control: 100%
[10]; 1000 g/ha
  % control: 100%
[11]; 64 g/ha
  % control: 0%
[11]; 125 g/ha
  % control: 100%
[11]; 250 g/ha
  % control: 100%
[11]; 500 g/ha
  % control: 100%
[11]; 1000 g/ha
  % control: 100%
[12]; 1000 g a.i.
  selectivity on transplanted rice: excellent selectivity
[12]; 64 g/ha
  effect on crop growth (rice): 0%
[12]; 125 g/ha
  effect on crop growth (rice): 0%
[12]; 250 g/ha
  effect on crop growth (rice): 0%
[12]; 500 g/ha
  effect on crop growth (rice): 0%
[12]; 1000 g/ha
  effect on crop growth (rice): 10%
[12]; transplanted 'M202' Japonica-type rice, 500 g a.i. per hectare
  rice selectivity: excellent rice selectivity
[13]; 64 g/ha
  % control: 0%
[13]; 125 g/ha
  % control: 30%
[13]; 250 g/ha
  % control: 30%
[13]; 500 g/ha
  % control: 70%
[13]; 1000 g/ha
  % control: 95%
[14]; 64 g/ha
  effect on crop growth (rice): 10%
[14]; 125 g/ha
  effect on crop growth (rice): 10%
[14]; 250 g/ha
  effect on crop growth (rice): 10%
[14]; 500 g/ha
  effect on crop growth (rice): 15%
[14]; 1000 g/ha
  effect on crop growth (rice): 40%
[15]; 64 g/ha
  % control: 0%
[15]; 125 g/ha
  % control: 70%
[15]; 250 g/ha
  % control: 95%
[15]; 500 g/ha
  % control: 100%
[15]; 1000 g/ha
  % control: 100%
[16]; Cyperus sp, 5 DAYS, 0.05 mg/mL in 4% ethanol
  % control: 5a %
[16]; Cyperus sp, 5 DAYS, 0.1 mg/mL in 4% ethanol
  % control: 12a %
[16]; Cyperus sp, 5 DAYS, 0.2 mg/mL in 4% ethanol
  % control: 16a %
[16]; Cyperus sp, 5 DAYS, 0.4 mg/mL in 4% ethanol
  % control: 25a %
[16]; Cyperus sp, 12 DAYS, 0.05 mg/mL in 4% ethanol
  % control: 15a %
[16]; Cyperus sp, 12 DAYS, 0.1 mg/mL in 4% ethanol
  % control: 75b %
[16]; Cyperus sp, 12 DAYS, 0.2 mg/mL in 4% ethanol
  % control: 77b %
[16]; Cyperus sp, 12 DAYS, 0.4 mg/mL in 4% ethanol
  % control: 73b %
[16]; Cyperus sp, 21 DAYS, 0.05 mg/mL in 4% ethanol
  % control: 53b %
[16]; Cyperus sp, 21 DAYS, 0.1 mg/mL in 4% ethanol
  % control: 90c %
[16]; Cyperus sp, 21 DAYS, 0.2 mg/mL in 4% ethanol
  % control: 88c %
[16]; Cyperus sp, 21 DAYS, 0.4 mg/mL in 4% ethanol
  % control: 83c %
[16]; sedge (Cyperus difformis), highest concentration (0.4 mg/mL)
  % control: 75-80%
[17]; 64 g/ha
  % control: 0%
[17]; 125 g/ha
  % control: 85%
[17]; 250 g/ha
  % control: 100%
[17]; 500 g/ha
  % control: 100%
[17]; 1000 g/ha
  % control: 100%
[18]
  % control: 90-100%
